From ChEMBL document CHEMBL1158791, “Grayanane diterpenoids from the flowers of Rhododendron molle with cytotoxic activity against a Spodoptera frugiperda cell line” (J Nat Prod, 2005)
≈ marks a conversion by molar mass, not a printed value.

Assay: Cytotoxicity against Spodoptera frugiperda Sf9 cells after 48 hrs
Type: functional, cell-based
Settings: Sf9, 48 h

Structure (SMILES) | IC50 [µg/mL]
C/C=C(\C)C(=O)O[C@H]1C[C@@H](OC(C)=O)[C@@]2(C(=O)OC)CO[C@H]3[C@@H](O)[C@@](C)([C@]45O[C@@]4(C)[C@@H]4C[C@H]5O[C@@H]5OC=C[C@@]54O)[C@H]4[C@]1(CO[C@]4(O)C(=O)OC)[C@@H]32 [AZADIRACHTIN A] | 20.3 (≈ 28.2 µM)
CC1(C)[C@H]2O[C@H]2[C@H]2[C@](C)(O)[C@@H]3CC[C@@H]4[C@H](O)[C@@]3(C[C@@H](O)[C@@]21O)C[C@@]4(C)O [RHODOJAPONIN] | 12.6 (≈ 34.2 µM)
C=C1[C@@H]2[C@H](OC)[C@H](O)C(C)(C)[C@@]2(O)[C@H](O)C[C@]23C[C@@](C)(O)[C@H](CC[C@@H]12)[C@H]3O [RHODOMOLIN A] | 37.8 (≈ 98.8 µM)
C=C1[C@@H]2[C@H](O)[C@H](O)C(C)(C)[C@@]2(O)[C@H](O)C[C@]23C[C@@](C)(O)[C@H](CC[C@@H]12)[C@H]3OC(C)=O [RHODOMOLIN B] | 25.6 (≈ 62.4 µM)
